In ChEMBL document CHEMBL1152959, “Design, synthesis and dopamine D4 receptor binding activities of new N-heteroaromatic 5/6-ring Mannich bases” (Bioorg Med Chem, 2009):

Legend:
D(4) dopamine receptor = molecular target: T1, D(4) dopamine receptor (Homo sapiens, UniProt P21917); experiment: Displacement of [3H]spiroperidol from human cloned dopamine D4.4 receptor expressed in CHO cells; type: cell-based
T1 sequence (P21917 whole entry): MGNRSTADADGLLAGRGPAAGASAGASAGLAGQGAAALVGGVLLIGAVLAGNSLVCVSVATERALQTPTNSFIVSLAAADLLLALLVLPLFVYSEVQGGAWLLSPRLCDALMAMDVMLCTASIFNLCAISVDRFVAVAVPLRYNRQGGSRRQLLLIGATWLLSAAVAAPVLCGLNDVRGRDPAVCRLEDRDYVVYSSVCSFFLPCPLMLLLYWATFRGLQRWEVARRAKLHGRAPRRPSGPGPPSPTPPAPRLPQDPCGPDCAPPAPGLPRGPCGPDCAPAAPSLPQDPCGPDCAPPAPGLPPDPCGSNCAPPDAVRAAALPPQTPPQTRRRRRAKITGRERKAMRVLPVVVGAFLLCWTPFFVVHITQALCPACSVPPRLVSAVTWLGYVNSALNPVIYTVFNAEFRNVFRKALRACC

D(1A) dopamine receptor = D(1A) dopamine receptor (Bos taurus, UniProt Q95136)
Description: Displacement of [3H]SCH23390 from bovine dopamine D1 receptor

D(2) dopamine receptor [1] = molecular target: T2, D(2) dopamine receptor (Homo sapiens, UniProt P14416); experiment: biochemical
Description: Displacement of [3H]SCH23390 from human cloned dopamine D2 long receptor expressed in CHO cells

D(2) dopamine receptor [2] = molecular target: T2, D(2) dopamine receptor; experiment: biochemical; remark: listed apart in the source
Description: Displacement of [3H]spiroperidol from human cloned dopamine D2 short receptor expressed in CHO cells

D(3) dopamine receptor = D(3) dopamine receptor (Homo sapiens, UniProt P35462); experiment: biochemical
Description: Displacement of [3H]spiroperidol from human cloned dopamine D3 receptor expressed in CHO cells

[3] = molecular target: D(1A) dopamine receptor (Sus scrofa) (UniProt P50130); experiment: Displacement of [3H]SCH23390 from pig dopamine D1 receptor at 100 nM
D(2) dopamine receptor [4] = molecular target: T2, D(2) dopamine receptor; experiment: Displacement of [3H]spiperone from human cloned dopamine D2 long receptor expressed in CHO cells at 100 nM; type: cell-based
[5] = molecular target: T3, D(4) dopamine receptor (Homo sapiens) (UniProt P21917); experiment: Displacement of [3H]spiperone from human cloned dopamine D4.4 receptor expressed in CHO cells at 100 nM; type: cell-based
T3 sequence (whole entry): T1 sequence (P21917 whole entry)

D(3) dopamine receptor, sequence (P35462 whole entry): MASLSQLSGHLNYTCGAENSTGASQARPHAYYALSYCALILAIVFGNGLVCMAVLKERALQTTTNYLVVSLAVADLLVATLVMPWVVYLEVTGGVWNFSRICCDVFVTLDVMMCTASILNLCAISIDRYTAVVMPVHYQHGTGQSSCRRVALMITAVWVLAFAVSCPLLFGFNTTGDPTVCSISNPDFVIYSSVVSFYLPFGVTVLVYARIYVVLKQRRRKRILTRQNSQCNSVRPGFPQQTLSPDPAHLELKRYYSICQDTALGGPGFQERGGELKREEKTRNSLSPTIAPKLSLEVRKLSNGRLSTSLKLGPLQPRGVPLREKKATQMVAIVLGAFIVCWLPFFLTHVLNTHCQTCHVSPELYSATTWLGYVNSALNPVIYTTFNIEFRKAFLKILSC
D(1A) dopamine receptor (Sus scrofa), sequence (P50130 whole entry): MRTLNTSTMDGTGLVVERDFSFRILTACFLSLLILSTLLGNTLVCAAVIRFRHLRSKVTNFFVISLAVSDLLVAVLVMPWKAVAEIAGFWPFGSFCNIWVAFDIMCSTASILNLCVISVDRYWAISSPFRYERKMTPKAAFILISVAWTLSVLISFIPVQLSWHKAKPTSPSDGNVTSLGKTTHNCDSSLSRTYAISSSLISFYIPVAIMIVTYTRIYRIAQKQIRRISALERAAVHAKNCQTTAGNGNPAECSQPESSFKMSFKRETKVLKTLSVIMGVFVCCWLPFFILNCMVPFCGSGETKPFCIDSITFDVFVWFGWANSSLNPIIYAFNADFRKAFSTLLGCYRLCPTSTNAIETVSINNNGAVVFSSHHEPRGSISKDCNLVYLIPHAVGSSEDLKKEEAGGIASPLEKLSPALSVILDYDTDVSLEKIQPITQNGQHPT
T2 sequence (P14416 whole entry): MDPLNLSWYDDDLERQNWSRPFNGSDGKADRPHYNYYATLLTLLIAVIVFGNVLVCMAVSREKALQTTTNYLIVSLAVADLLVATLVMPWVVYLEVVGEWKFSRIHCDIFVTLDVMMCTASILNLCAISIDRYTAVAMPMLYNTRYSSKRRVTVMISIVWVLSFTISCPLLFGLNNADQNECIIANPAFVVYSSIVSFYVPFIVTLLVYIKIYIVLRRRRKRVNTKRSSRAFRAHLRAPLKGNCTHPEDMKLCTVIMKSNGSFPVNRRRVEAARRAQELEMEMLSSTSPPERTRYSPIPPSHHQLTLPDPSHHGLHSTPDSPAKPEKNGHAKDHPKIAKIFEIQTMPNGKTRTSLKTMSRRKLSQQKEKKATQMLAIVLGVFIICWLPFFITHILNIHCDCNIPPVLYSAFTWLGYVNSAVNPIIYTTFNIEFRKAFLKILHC
D(1A) dopamine receptor, sequence (Q95136 whole entry): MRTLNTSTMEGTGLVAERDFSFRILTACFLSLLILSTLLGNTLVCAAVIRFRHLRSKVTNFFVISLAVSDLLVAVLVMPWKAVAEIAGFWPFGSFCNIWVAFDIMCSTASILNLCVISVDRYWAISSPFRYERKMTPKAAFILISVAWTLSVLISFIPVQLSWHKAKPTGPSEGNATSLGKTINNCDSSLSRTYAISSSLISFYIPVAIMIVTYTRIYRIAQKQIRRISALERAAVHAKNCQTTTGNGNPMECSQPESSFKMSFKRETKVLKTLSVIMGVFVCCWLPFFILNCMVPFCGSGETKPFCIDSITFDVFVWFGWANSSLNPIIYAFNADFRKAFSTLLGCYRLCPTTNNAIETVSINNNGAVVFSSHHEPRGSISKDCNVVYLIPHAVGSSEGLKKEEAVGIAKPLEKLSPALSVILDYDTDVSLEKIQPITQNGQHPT

| SMILES | Ki (D(4) dopamine receptor) | Ki (D(1A) dopamine receptor) | Ki (D(2) dopamine receptor [1]) | Ki (D(2) dopamine receptor [2]) | Ki (D(3) dopamine receptor) | Activity [3] | Activity (D(2) dopamine receptor [4]) | Activity [5] |
| --- | --- | --- | --- | --- | --- | --- | --- | --- |
| Cc1cc2nc(C)c(CN3CCN(c4ccc(F)cc4)CC3)n2c(C)n1 | 0.36 µM | 12 µM | 4.7 µM | 3.5 µM | 22 µM |  |  |  |
| Cn1c(N2CCCC2)nc2c(CN3CCN(c4ccccn4)CC3)c[nH]c2c1=O | 0.0028 µM | 0.79 µM | 0.27 µM | 0.15 µM | 0.31 µM |  |  |  |
| COc1cc2ncc(CN3CCN(c4ccccc4OC)CC3)n2c(OC)n1 |  |  |  |  |  | 0% | 0% | 20% |
| COc1ccc(N2CCN(Cc3c(C)[nH]c4nc(N(C)C)ncc34)CC2)cc1 |  |  |  |  |  | 0% | 0% | 0% |
| Cc1cc2ncc(CN3CCN(c4ccc(Cl)c(Cl)c4)CC3)n2c(C)n1 |  |  |  |  |  | 0% | 0% | 0% |
| CCOC(=O)c1nc2cc(C)nc(C)n2c1CN1CCN(c2ccccc2OC)CC1 |  |  |  |  |  | 0% | 0% | 0% |
| COc1ccccc1N1CCN(Cc2cnc3cc(C)nc(C)n23)CC1 | 0.066 µM | 11 µM | 1.3 µM | 0.57 µM | 1.5 µM |  |  |  |
| Clc1nccc2c(CN3CCN(c4ccccc4)CC3)c[nH]c12 | 0.0064 µM | 6.8 µM | 2.6 µM | 2.9 µM | 6.1 µM |  |  |  |
| Cn1c(N2CCCC2)nc2c(CN3CCN(c4ccc(Cl)c(Cl)c4)CC3)c[nH]c2c1=O | 0.0034 µM | 1.5 µM | 0.57 µM | 0.38 µM | 0.48 µM |  |  |  |
| Cn1c(N2CCCC2)nc2c(CN3CCN(c4ccc(F)cc4)CC3)c[nH]c2c1=O | 0.016 µM | 0.16 µM | 0.84 µM | 0.4 µM | 0.63 µM |  |  |  |
| COc1ccc(N2CCN(Cc3c(C)nc4cc(C)ncn34)CC2)cc1 | 0.012 µM | 27 µM | 9.1 µM | 13 µM | 13 µM | 0% | 0% | 60% |
| Cc1cc2nc(C)c(CN3CCN(c4ccc(Cl)cc4)CC3)n2c(C)n1 | 0.066 µM | 7.1 µM | 26 µM | 57 µM | 3.1 µM |  |  |  |
| Cc1cc2ncc(CN3CCN(c4ccccn4)CC3)n2c(C)n1 |  |  |  |  |  | 0% | 0% | 0% |
| Cn1c(N2CCOCC2)nc2c(CN3CCN(c4ccccc4)CC3)c[nH]c2c1=O | 0.025 µM | 0.52 µM | 1.1 µM | 0.73 µM | 2.7 µM |  |  |  |
| Cc1cc2nc(C)c(CN3CCN(c4ccc(Cl)c(Cl)c4)CC3)n2c(C)n1 | 0.021 µM | 2.1 µM | 3.3 µM | 5.5 µM | 1.3 µM |  |  |  |
| COc1ccccc1N1CCN(Cc2c(C)nc3cc(C)ncn23)CC1 | 0.039 µM | 59 µM | 40 µM | 53 µM | 67 µM | 0% | 0% | 20% |
| Cc1cc2nc(C)c(CN3CCN(c4ccc(Cl)c(Cl)c4)CC3)n2cn1 |  |  |  |  |  | 0% | 0% | 20% |
| Cc1cc2nc(C)c(CN3CCN(c4ccccn4)CC3)n2c(C)n1 | 0.12 µM | 22 µM | 17 µM | 10 µM | 0.64 µM |  |  |  |
| COc1ccccc1N1CCN(Cc2c(C)[nH]c3nc(N(C)C)ncc23)CC1 | 0.0064 µM | 6.8 µM | 2.6 µM | 2.9 µM | 6.1 µM | 0% | 20% | 80% |
| Cc1cc2nc(C)c(CN3CCN(c4ccccn4)CC3)n2cn1 |  |  |  |  |  | 0% | 0% | 40% |
| COc1ccccc1N1CCN(Cc2c(C)nc3cc(C)nc(C)n23)CC1 | 0.014 µM | 8.4 µM | 2.3 µM | 2.9 µM | 3.4 µM | 0% | 0% | 60% |
| COc1ccccc1N1CCN(Cc2cc3c(=O)[nH]c(N(C)C)nc3[nH]2)CC1 | 0.0024 µM | 8.4 µM | 0.13 µM | 0.17 µM | 0.96 µM | 20% | 20% | 60% |
| Cn1c(N2CCCC2)nc2c(CN3CCN(c4ccccc4)CC3)c[nH]c2c1=O | 0.0038 µM | 0.25 µM | 0.39 µM | 0.18 µM | 0.33 µM |  |  |  |
| Cc1cc2nc(C)c(CN3CCN(c4ccccc4)CC3)n2c(C)n1 | 0.07 µM | 11 µM | 8.6 µM | 11 µM | 4.2 µM |  |  |  |
| COc1ccc(N2CCN(Cc3c(C)nc4cc(C)nc(C)n34)CC2)cc1 | 0.96 µM | 6.6 µM | 0.26 µM | 0.16 µM | 0.0085 µM | 0% | 0% | 0% |
| CCOC(=O)c1nc2cc(C)nc(C)n2c1CN1CCN(c2ccc(OC)cc2)CC1 |  |  |  |  |  | 0% | 0% | 0% |

Further lines, results first:

| Ki (D(4) dopamine receptor) | Ki (D(1A) dopamine receptor) | Ki (D(2) dopamine receptor [1]) | Ki (D(2) dopamine receptor [2]) | Ki (D(3) dopamine receptor) | Activity [3] | Activity (D(2) dopamine receptor [4]) | Activity [5] | SMILES |
| --- | --- | --- | --- | --- | --- | --- | --- | --- |
|  |  |  |  |  | 0% | 0% | 0% | Cc1cc2nc(C)c(CN3CCN(c4ccc(Cl)cc4)CC3)n2cn1 |
|  |  |  |  |  | 0% | 0% | 0% | COc1ccc(N2CCN(Cc3cnc4cc(C)nc(C)n34)CC2)cc1 |
|  |  |  |  |  | 0% | 0% | 20% | Cc1cc2ncc(CN3CCN(c4ccccc4)CC3)n2cn1 |
|  |  |  |  |  | 0% | 0% | 0% | Cc1cc2nc(C)c(CN3CCN(c4ccccc4)CC3)n2cn1 |
|  |  |  |  |  | 0% | 0% | 0% | COc1ccc(N2CCN(Cc3cnc4cc(C)ncn34)CC2)cc1 |
|  |  |  |  |  | 0% | 0% | 0% | Cc1cc2ncc(CN3CCN(c4ccc(Cl)cc4)CC3)n2c(C)n1 |
|  |  |  |  |  | 0% | 0% | 0% | COc1ccc(N2CCN(Cc3cnc4ccncn34)CC2)cc1 |
|  |  |  |  |  | 0% | 0% | 0% | Cc1cc2ncc(CN3CCN(c4ccccc4)CC3)n2c(C)n1 |
|  |  |  |  |  | 0% | 20% | 0% | COc1ccc(N2CCN(Cc3cnc4cc(OC)nc(OC)n34)CC2)cc1 |
|  |  |  |  |  | 0% | 0% | 0% | Cc1cc2ncc(CN3CCN(c4ccc(Cl)cc4)CC3)n2cn1 |
|  |  |  |  |  | 0% | 0% | 0% | Cc1cc2ncc(CN3CCN(c4ccc(Cl)c(Cl)c4)CC3)n2cn1 |
|  |  |  |  |  | 0% | 0% | 0% | COc1ccccc1N1CCN(Cc2cnc3cc(C)ncn23)CC1 |
|  |  |  |  |  | 0% | 0% | 0% | Cc1cc2ncc(CN3CCN(c4ccccn4)CC3)n2cn1 |
